Data from US20110250133A1, “GASTRIN […] PEPTIDE COMPOUNDS” (priority 2003, published 2011).
Like-named read-outs stand apart in the source and are kept apart here.

Assays:
[1] = biological target: gastrin releasing peptide receptor (GRP-R) (human) (UniProt P30550); assay: competition with 177Lu-AMBA on PC-3 cells, 4 C
[2] = biological target: gastrin releasing peptide receptor (GRP-R) (human) (UniProt P30550); assay: competition with 67Ga-AMBA on PC-3 cells, 4 C
PC3 cells = assay: Internalization and efflux assay in PC3 cells; type: cell-based, human; details: 125I-BBN or Lu-177 complexes; for Internalisation (40 minutes): 40 min at 37° C.; for Efflux (2 h): 2 h at 37° C. after 40 min loading
Method: These studies were conducted in a 96-well plate. […] Incubations were stopped by the addition of 200 μl of ice-cold binding buffer. Plates were washed twice with binding buffer. To remove surface-bound radioligand, the cells were incubated with 0.2M acetic acid (in saline), pH 2.8 for 2 min. Plates were centrifuged and the acid wash media were collected to determine the amount of radioactivity which was not internalized. The cells were collected to determine the amount of internalized ^125I-BBN, and all samples were analyzed in the gamma counter. Data for the internalization assay was normalized by comparing counts obtained at the various time points with the counts obtained at the final time point (T=40 min).
For the efflux studies, after loading the PC3 cells with ^125I-BBN or radiolabeled compounds of the invention for 40 min at 37° C., the unbound material was filtered, and the % of internalization was determined as above. The cells were then resuspended in binding buffer at 37° C. for up to 3 h.

NMB-R = biological target: T1, NMB-R (Rattus norvegicus, UniProt P24053); assay: Competition with 125I-NMB for NMB-R in C6 cells (linker specificity); type: binding, rodent; details: for receptor subtype preference (GRP-R vs NMB-R): from IC50 with 125I-NMB (C6) and 125I-BBN (PC3), cut off 10x the IC50 of [Tyr4]-BBN;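 as to all read-outs here: test cells: rodent glioblastoma C6 line carrying NMB-R, human prostate cancer PC3 line carrying GRP-R, affinity fitted by one-site competition nonlinear regression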
T1 construct: C6, an NMB-R expressing rodent glioblastoma cell line; host or cells: C6 glioblastoma cells, intact adherent cells
T1 sequence (P24053 1-390): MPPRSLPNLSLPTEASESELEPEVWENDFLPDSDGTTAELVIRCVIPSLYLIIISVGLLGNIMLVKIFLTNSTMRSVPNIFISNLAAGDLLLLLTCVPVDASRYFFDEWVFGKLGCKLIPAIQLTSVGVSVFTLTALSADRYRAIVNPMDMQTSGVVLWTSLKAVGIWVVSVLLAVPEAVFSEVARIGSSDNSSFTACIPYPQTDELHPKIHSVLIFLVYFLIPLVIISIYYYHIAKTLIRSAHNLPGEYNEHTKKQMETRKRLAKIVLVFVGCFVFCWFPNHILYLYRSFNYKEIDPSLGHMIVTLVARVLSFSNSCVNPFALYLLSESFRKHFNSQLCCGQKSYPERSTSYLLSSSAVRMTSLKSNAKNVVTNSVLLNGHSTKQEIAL
Method: Two cell lines, C6, an NMB-R expressing rodent glioblastoma cell line and PC3, a GRP-R expressing human prostate cancer cell line, were used in this assay. The affinity of various unlabeled compounds for each receptor subtype (NMB-R and GRP-R) was determined indirectly by measuring its ability to compete with the binding of ^125I-NMB or ^125I-BBN to its corresponding receptors in C6 and PC3 cells.
Cells for the assays were plated at a concentration of 9.6×10^4/well in 48 well poly-lysine coated plates (Beckton Dickinson Biocoat). PC3 were obtained from ATCC(CRL-1435) and cultured in RPMI 1640 (ATCC) supplemented with 2 mM L-glutamine, 1.5 g/L Sodium bicarbonate, 10 mM HEPES and 10% FBS. […] PC3 cells for the assays were plated at a concentration of 2.0×10^4 cells/well in 96-well white/clear bottom plates (Falcon Optilux-I). Plates were used for the assays on day 2 of the post-plating.
RPMI 1640 (ATCC) containing 25 mM HEPES, 0.2% BSA fraction V, 1.0 mM AEBSF (CAS # 3087-99-7) and 0.1% Bacitracin (CAS # 1405-87-4), pH 7.4. Custom made ^125I-[Tyr^0]NMB, >2.0 Ci/μmole (Amersham Life Science) [^125I-NMB] and commercially available ^125I-[Tyr^4]BBN, >2.0 Ci/μmole (Perkin Elmer Life Science) [^125I-BBN] were used as radioligands.
Using a 48-well plate assay system (for C6 study) competition experiments were performed using ^125I-NMB. […] Selection of compounds for the assay was based on linker subtype.
The binding parameters obtained from the studies were analyzed using a one-site competition non-linear regression analysis with GraphPad Prism. The relative affinity of various compounds for NMB-R in C6 cells were compared with those obtained using commercially available [Tyr^4]-BBN and [Tyr^0]-NMB. To distinguish the GRP-R preferring compounds from NMB-R plus GRP-R preferring compounds, IC50 values obtained for each compound were compared with those obtained from [Tyr^4-BBN with ^125I-NMB on C6 cells.

[3] = system: PC3 tumor-bearing nude mouse model; assay: Radiotherapy efficacy studies in the PC3 tumor-bearing nude mouse model; type: in vivo; details: 177Lu labeled; for survival, Short Term Efficacy Study: 30 mCi/kg, up to 30 days, vs untreated and DO3A-monoamide-Aoc-QWAVGHLM-NH2 control; for survival, Long Term Efficacy Study: same dose, up to 120 days, vs controls
Method: Radiotherapy studies were performed using the PC3 tumor-bearing nude mouse model. […] (n=12 for each treatment group for up to 30 days, and n=36 for the pooled untreated control group for up to 31 days). […] The subjects were housed in a barrier environment for the duration of the study. Body weight and tumor size (by caliper measurement) were collected on each subject 3 times per week for the duration of the study. Criteria for early termination included: death; loss of total body weight (TBW) equal to or greater than 20%; tumor size equal to or greater than 2 cm^3.

[4] = system: PC3 tumor-bearing nude mice; type: in vivo, mouse
Method: In all studies, mice were administered 100 μL of ^177Lu-labeled test compound at 200 μCi/kg, i.v., with a residence time of 1 and 24 h per group (n=3-4). Tissues were analyzed in an LKB 1282 CompuGamma counter with appropriate standards.

[5] = system: ZR-75-1 human breast cancer cells; assay: Effect of 4-hydroxytamoxifen on GRP receptor binding and glucose uptake in ZR-75-1 cells; type: cell-based
Method: Method: ZR-75-1 breast cancer cell line (human ductal carcinoma with estrogen receptor) was obtained from the American Type Culture Collection (ATCC).
ZR-75-1 cells were plated on Day 0 (40 k/well 96-well PE Scintiplate). […] To determine the cell numbers and the proliferation, 100 uL of 10% CCK—F solution in DPBS (Molecular technologies) was added to the same plate, incubated for 30 min at 37° C. and the relative fluorescence (RFU) measured at 535 nm. Based on the cell numbers and the ^177Lu-binding, the Bmax (fmoles bound/million cells) was calculated.
The cell numbers were determined with CCK—F treatment as described above.

[6] = system: BT-474 human breast cancer cells; assay: Effect of drug treatment on GRP receptor binding (177Lu-AMBA) in BT-474 cells; type: cell-based; details: BT-474; relative to untreated control; drug 0.1-1.0 μM (4-OH Tamoxifen 0.001-0.1 μM)
Method: BT-474 breast cancer cells (human primary invasive ductal carcinoma; ER+, PR+, amplified HER2/neu+) were obtained from the American Type Culture Collection. The growth medium for BT-474 cells is Hybri-care Medium (Cat No: 46X, ATCC) supplemented with 10% heat inactivated FBS (Hyclone, SH30070.03), 0.2% NaHCO3, and antibiotic/antimycotic “PSF-1×” (GibcoBRL, 15240-062) for a final concentration of penicillin-streptomycin (1×, 100 units/mL), and fungizone (0.25 μg/mL). […] Cells for binding experiments were plated on Day 0 at 5.6×10^4 cells/cm^2 in 96-well white/clear bottom microtiter plates (Falcon Optilux-I), or 96 well black/clear collagen I cellware plates (Beckton Dickinson Biocoat).
(§1) RPMI 1640 supplemented with 20 mM HEPES, 0.1% BSA (w/v), 0.5 mM PMSF (AEBSF), bacitracin (50 mg/500 ml), pH 7.4.
(§2) Incubations were stopped by the addition of 200 μL of ice-cold binding buffer. Plates were washed three more times with binding buffer, 140 μL of scintillation fluid was added to each well, the plates were sealed and analyzed on a Microβ plate reader (Microbeta Trilux, Perkin-Elmer).
Treatment: BT-474 cells were plated on Day 0 and treated on Days 1 and 2 (DT1, DT2).

[7] = system: ZR-75-1 human breast cancer cells; assay: Longterm (2-12 days) effect of 4-hydroxytamoxifen on GRP receptor binding in ZR-75-1 cells; type: cell-based
Method: The ZR-75-1 cells were seeded at 15K per well onto two 96-well scintiplates on the same day as 2 days study.

[8] = system: T47D human breast cancer cells; assay: Effect of drug treatment on GRP receptor binding (177Lu-AMBA) in T47D cells; type: cell-based; details: T-47D; relative to untreated control; drug 0.1-1.0 μM (4-OH Tamoxifen 0.001-0.1 μM)
Description: T-47D breast cancer cells (human metastatic mammary gland ductal adenocarcinoma isolated from pleural effusion, ER+, PR+) were obtained from the American Type Culture Collection.

[9] = system: PC-3 prostate cancer cells; assay: Effect of drug treatment on GRP receptor binding (177Lu-AMBA) in PC-3 cells; type: cell-based, human; details: PC-3; drug 0.1-1.0 μM (4-OH Tamoxifen 0.001-0.1 μM)
Method: as §1, §2
PC-3 (human prostate adenocarcinoma, bone metastasis, AR-, ER) were obtained from the American Type Culture Collection. The growth medium for PC-3 cells is RPMI 1640 (10-041-CM, Mediatech, Inc), supplemented with 10% heat inactivated FBS (Hyclone, SH30070.03) and PSF-1× (as in Example LXVI). The binding buffer, lapatinib solutions, treatment method and cell binding assay is the same as in Example LXVI.

[10] = system: human PC-3 nude mouse model; type: in vivo
Method: For biodistribution studies, the radiolabeled compounds were prepared as described above except that a 1:1 molar ratio of ligand to Lutetium was used to guarantee complete chelation of all starting ligand. The HPLC peak containing the resulting ^177Lu complex was collected in 1 mL of 9:1 Bacteriostatic saline/ASCOR L500® solution containing 0.1% HSA, and the organic solvents were removed using a speed-vacuum device. The remaining solution was further diluted to the required radioconcentration using Bacteriostatic saline/ASCOR L500® Ascorbic Acid Injection USP mixed in a 9 to 1 [v/v]) ratio. The radiochemical purity of all samples was […].
10-50 μCi of the HPLC purified compounds were administered to each mouse by i.v. tail vein injection, n=4 per group. […] Radioactivity was assayed in a gamma counter. The data was expressed as percentage of the total administered radioactivity (% ID) for the urine combined with the bladder, as well as for the blood pool; and percentage of the total administered radioactivity per gram (% ID/g) for all the other tested organs.

GRP-R = biological target: T2, GRP-R (Homo sapiens, UniProt P30550); assay: Competition studies of modified BBN analogs with 125I-BBN for GRP-R in PC3 cells (Example LXI); type: binding
T2 construct: host or cells: PC3 (PC-3) human prostate cancer cells, intact adherent cells
Method: PC3 cell lines were obtained from ATCC(CRL-1435) and cultured in RPMI 1640 (ATCC) supplemented with 2 mM L-glutamine, 1.5 g/L Sodium bicarbonate, 10 mM HEPES and 10% FBS. […] PC3 cells for the assays were plated at a concentration of 2.0×10^4 cells/well in a 96-well white/clear bottom plates (Falcon Optilux-I). Plates were used for the assays on day 2 of the post-plating.
^125I-BBN (Cat # NEX258) was obtained from PerkinElmer Life Sciences.
All compounds tested were dissolved in binding buffer and appropriate dilutions were also done in binding buffer. PC3 cells for assay were seeded at a concentration of 2.0×10^4/well either in 96-well black/clear collagen I cellware plates (Beckton Dickinson Biocoat). Plates were used for binding studies on day 2 post-plating. The plates were checked for confluency (>90% confluent) prior to assay. […] The studies were conducted with an assay volume of 75 μL per well. Triplicate wells were used for each data point. After the addition of the appropriate solutions, plates were incubated for 1 hour at 4° C. Incubation was ended by the addition of 200 μL of ice-cold incubation buffer. Plates were washed 5 times and blotted dry. Radioactivity was detected using either a LKB CompuGamma counter or a microplate scintillation counter.

[11] = biological target: gastrin releasing peptide receptor (GRP-R) (human) (UniProt P30550); assay: saturation binding of carrier-added radioligand on PC-3 cells, 4 C
[12] = biological target: human neuromedin-B preferring receptor (NMB-R) (human) (UniProt P28336); assay: competition with 125I-universal ligand, receptor autoradiography on human cancer tissue
[13] = biological target: gastrin releasing peptide receptor (GRP-R) (human) (UniProt P30550); assay: as above
[14] = 177Lu-labeled, 1 and 24 h, compared with control DO3A-monoamide-Aoc-QWAVGHLM-NH2
[15] = 177Lu-labeled, compared with control DO3A-monoamide-Aoc-QWAVGHLM-NH2
[16] = ZR-75-1, long-term treatment, 100 nM

gastrin releasing peptide receptor (GRP-R) (human), sequence (P30550 whole entry): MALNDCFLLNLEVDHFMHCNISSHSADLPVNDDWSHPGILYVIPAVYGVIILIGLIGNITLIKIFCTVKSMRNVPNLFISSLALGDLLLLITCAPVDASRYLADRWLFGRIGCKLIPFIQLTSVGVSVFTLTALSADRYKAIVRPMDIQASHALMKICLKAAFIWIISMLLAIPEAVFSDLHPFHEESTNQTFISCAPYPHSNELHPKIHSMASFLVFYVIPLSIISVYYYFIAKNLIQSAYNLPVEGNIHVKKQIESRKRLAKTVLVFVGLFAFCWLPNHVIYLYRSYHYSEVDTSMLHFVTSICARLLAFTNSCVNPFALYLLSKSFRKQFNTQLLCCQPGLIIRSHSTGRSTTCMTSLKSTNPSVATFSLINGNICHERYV
T2 sequence (P30550 whole entry): as above
human neuromedin-B preferring receptor (NMB-R) (human), sequence (P28336 whole entry): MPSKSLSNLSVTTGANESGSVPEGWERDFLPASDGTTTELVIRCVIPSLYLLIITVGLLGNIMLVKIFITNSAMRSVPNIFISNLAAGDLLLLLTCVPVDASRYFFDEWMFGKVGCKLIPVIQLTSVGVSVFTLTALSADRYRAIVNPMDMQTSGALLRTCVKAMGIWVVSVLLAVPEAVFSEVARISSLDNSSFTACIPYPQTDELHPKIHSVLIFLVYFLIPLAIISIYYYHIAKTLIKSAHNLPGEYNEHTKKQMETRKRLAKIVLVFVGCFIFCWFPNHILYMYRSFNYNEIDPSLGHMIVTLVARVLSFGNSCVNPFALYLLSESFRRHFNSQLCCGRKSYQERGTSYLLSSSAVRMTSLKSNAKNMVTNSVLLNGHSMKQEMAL

Molecule: Ga-AMBA (non-radioactive) (peptide)
- EC50 [1]: 1.15 nM
- EC50 [2]: 1 nM

Molecule: CSCC[C@H](NC(=O)[C@H](CC(C)C)NC(=O)[C@H](Cc1c[nH]cn1)NC(=O)CNC(=O)[C@@H](NC(=O)[C@H](C)NC(=O)[C@H](Cc1c[nH]c2ccccc12)NC(=O)[C@H](CCC(N)=O)NC(=O)CC[C@@H](C)[C@H]1CC[C@H]2[C@@H]3[C@H](O)C[C@@H]4C[C@@H](NC(=O)CNC(=O)CN5CCN(CC(=O)O)CCN(CC(=O)O)CCN(CC(=O)O)CC5)CC[C@]4(C)[C@H]3C[C@H](O)[C@]12C)C(C)C)C(N)=O [Compound L64, N-[(3β,5β,7α,12α)-3-[[[[[4,7,10-Tris(carboxymethyl)-1,4,7,10-tetraazacyclododec-1-yl]acetyl]amino]acetyl]amino]-7,12-dihydroxy-24-oxocholan-24-yl]-L-glutaminyl-L-tryptophyl-L-alanyl-L-valyl-glycyl-L-histidyl-L-leucyl-L-methioninamide]
- Internalisation (40 minutes) (PC3 cells): 69%
- Efflux (2 h) (PC3 cells): 20%
- receptor subtype preference (GRP-R vs NMB-R) (NMB-R): dual affinity for both GRP-R and NMB-R
- survival, Short Term Efficacy Study [3]: increased survival
- survival, Long Term Efficacy Study [3]: significantly increased survival
- uptake in the tumor [4, 14]: much higher
- uptake in the mouse pancreas [4, 15]: much higher

Molecule: CC/C(=C(\c1ccc(O)cc1)c1ccc(OCCN(C)C)cc1)c1ccccc1 [4-OH Tamoxifen, 4-hydroxytamoxifen]
- decrease in glycolysis (2-NBDG uptake) ([5]; ZR-75-1): ~20%
- change in cell proliferation ([5]; ZR-75-1, 0-0.1 μM): little change
- decrease in 177Lu-AMBA binding (GRP receptor specific signal per cell) [6]: up to 73%
- inhibition of proliferation ([7]; ZR-75-1, 100 nM, by 12 day): 28%
- 2-NBDG uptake [7, 16]: smaller changes
- 177Lu-AMBA uptake [7, 16]: significant reduction
- decrease in 177Lu-AMBA binding (GRP receptor specific signal per cell) [8]: up to 35%
- change in GRP receptor specific signal per cell (177Lu-AMBA binding) [9]: no change

Molecule: CC1(N(CC(=O)O)CC(=O)O)CN(CC(=O)O)[C@@H]2CCCC[C@H]2N(CC(=O)O)C1 [XX100]
- Blood % ID (7 d column, *72 h timepoint) ([10]; 177Lu complex, i.v., PC-3 nude mouse, 72 h): 0.00 ± 0.00 % ID
- clearance and localization of radioactivity ([10]; Lu-177 complexes, human PC-3 nude mouse model, 1 h, 1 and 7 days): rapidly cleared from the body with little residual localization in any organs or tissue

Molecule: yGNLWATGHFM-NH2
- competition at NMB-R (NMB-R): effective NMB competitors
- competition at the GRP-R (GRP-R): unable to compete

Molecule: N-[(3β,5β,12α)-3-[[[4,7,10-Tris(carboxymethyl)-1,4,7,10-tetraazacyclododec-1-yl]acetyl]amino]-glycyl-4-aminobenzoyl-L-glutaminyl-L-tryptophyl-L-alanyl-L-valyl-glycyl-L-histidyl-L-phenylalanyl-L-methioninamide [Compound L228]
- competition at the GRP-R (GRP-R): maintains GRP-R activity

Molecule: 67Ga-AMBA (peptide)
- Binding capacity (Bmax) (fmoles/1 × 10^6 cells) [11]: 402
- Kd [11]: 0.46 nM
- Receptors/cell (receptors/cell) [11]: 242000

Molecule: N-[(3β,5β,12α)-3-[[[4,7,10-Tris(carboxymethyl)-1,4,7,10-tetraazacyclododec-1-yl]acetyl]amino]-glycyl-4-aminobenzoyl-L-glutaminyl-L-tryptophyl-L-alanyl-glycyl-L-histidyl-L-phenylalanyl-L-leucinamide [Compound L224]
- competition at the GRP-R (GRP-R): complete loss of binding

Molecule: GNLWATGHFM-NH2
- competition at NMB-R (NMB-R): effective NMB competitors
- receptor preference in words (GRP-R / GRP-R and NMB-R) (NMB-R; wrapped cell: 'No selective preference' or 'preference for NMB-R'): preference for NMB-R
- competition at the GRP-R (GRP-R): unable to compete

Molecule: [DTyr6, βAla11, Phe13, Nle14]-BBN(6-14) (peptide)
- IC50 [12]: 0.8 nM
- IC50 [13]: 0.7 nM

Molecule: CSCC[C@H](NC(=O)[C@H](CC(C)C)NC(=O)[C@H](Cc1c[nH]cn1)NC(=O)CNC(=O)[C@@H](NC(=O)[C@H](C)NC(=O)[C@H](Cc1c[nH]c2ccccc12)NC(=O)[C@H](CCC(N)=O)NC(=O)CC[C@@H](C)[C@H]1CC[C@H]2[C@@H]3CC[C@@H]4C[C@@H](NC(=O)CNC(=O)CN5CCN(CC(=O)O)CCN(CC(=O)O)CCN(CC(=O)O)CC5)CC[C@]4(C)[C@H]3C[C@H](O)[C@]12C)C(C)C)C(N)=O [Compound L63, N-[(3β,5β,12α)-3-[[[[[4,7,10-Tris(carboxymethyl)-1,4,7,10-tetraazacyclododec-1-yl]acetyl]amino]acetyl]amino]-12-hydroxy-24-oxocholan-24-yl]-L-glutaminyl-L-tryptophyl-L-alanyl-L-valyl-glycyl-L-histidyl-L-leucyl-L-methioninamide]
- Internalisation (40 minutes) (PC3 cells): 64%
- Efflux (2 h) (PC3 cells): 0%
- receptor subtype preference (GRP-R vs NMB-R) (NMB-R): dual affinity for both GRP-R and NMB-R
- survival, Short Term Efficacy Study [3]: increased survival
- uptake in the tumor [4, 14]: high tumor uptake
- distribution of radioactivity in the blood, liver and kidneys [4, 15]: increased blood and liver values at early times
- uptake in the mouse pancreas [4, 15]: much higher

Molecule: 175Lu-L70 (peptide)
- EC50 [1]: 1.47 nM
- IC50 [12]: 0.9 nM
- IC50 [13]: 0.8 nM
- EC50 [2]: 1.28 nM

Molecule: N-[4-[[[[[4,7,10-Tris(carboxymethyl)-1,4,7,10-tetraazacyclododec-1-yl]acetyl]amino]acetyl]amino]benzoyl]-L-glutaminyl-L-tryptophyl-L-alanyl-L-valyl-glycyl-L-histidyl-L-leucyl-L-methioninamide [Compound L70]
- Internalisation (40 minutes) (PC3 cells): 70%
- Efflux (2 h) (PC3 cells): 12%
- receptor subtype preference (GRP-R vs NMB-R) (NMB-R): dual affinity
- survival, Short Term Efficacy Study [3]: increased survival
- survival, Long Term Efficacy Study [3]: significantly increased survival
- uptake in the tumor ([4]; mouse, in vivo): much higher
